Experimental data published in the Deep4Chem optical property database.

Experiment: solvent given as SMILES

SMILES: O=C1c2cc(-n3c4ccccc4c4ccccc43)ccc2S(=O)(=O)c2ccc(-n3c4ccccc4c4ccccc43)cc21
- absorption maximum (in C1CCOC1): 406 nm
- absorption maximum (in CCCCCC): 406 nm
- absorption maximum (in Cc1ccccc1): 406 nm
- absorption maximum (in ClC(Cl)Cl): 406 nm
- absorption maximum (in ClCCl): 406 nm

SMILES: Cc1c(COC(=O)Cc2c[nH]c3ccccc23)n2c(OCC(=O)Cc3c[nH]c4ccccc34)c(C)c(=O)n2c1=O
- absorption maximum (in CCO): 382 nm

SMILES: CC/[NH+]=c1\cc2oc3cc(NCCC(=O)NCC(=O)OC)c4ccccc4c3nc-2cc1C
- absorption maximum (in CCO): 600 nm
- absorption maximum (in O): 590 nm

SMILES: N#C/C(=C\c1ccncc1)c1nc(-c2ccccc2)cs1
- absorption maximum (in CC#N): 361 nm
- absorption maximum (in CCO): 370 nm
- absorption maximum (in CN(C)C=O): 368 nm
- absorption maximum (in CS(C)=O): 371 nm
- absorption maximum (in Cc1ccccc1): 372 nm
- absorption maximum (in ClCCl): 418 nm

SMILES: CN(C)c1ccc(-c2nc(C#N)c(C#N)n2C)cc1
- absorption maximum (in C1CCCCC1): 323 nm
- absorption maximum (in CC#N): 313 nm
- absorption maximum (in CO): 309 nm
- absorption maximum (in ClC(Cl)Cl): 326 nm

SMILES: c1ccc(-c2cc3cccc[n+]3[b-]3c(-c4cccc5[b-]4[n+]4ccccc4cc5-c4ccccc4)cccc32)cc1
- absorption maximum (in C1CCCCC1): 449 nm

SMILES: CC1=N/C(=C\c2ccccc2N(C)C)C(=O)N1C
- absorption maximum (in C1CCCCC1): 395 nm
- absorption maximum (in C1CCOC1): 395 nm
- absorption maximum (in CC#N): 396 nm
- absorption maximum (in CO): 398 nm
- absorption maximum (in CS(C)=O): 398 nm
- absorption maximum (in ClCCl): 396 nm
- absorption maximum (in O): 346 nm

SMILES: Cc1cc(C)c(B(c2cc(-c3ccc(C(C)(C)C)cc3)sc2-c2sc(-c3ccc(C(C)(C)C)cc3)cc2P(=O)(c2ccccc2)c2ccccc2)c2c(C)cc(C)cc2C)c(C)c1
- absorption maximum (in CO): 396 nm

SMILES: F[B-]1(F)OC(c2cccc(Br)c2)=Cc2ccc3ccccc3[n+]21
- absorption maximum (in ClC(Cl)Cl): 426 nm

SMILES: N#Cc1ccc(N/N=C/c2cc(Cl)ccc2O)cc1
- absorption maximum (in CO): 354 nm

SMILES: O=C1Nc2ccccc2/C1=C/C(=O)c1ccc([N+](=O)[O-])cc1
- absorption maximum (in C1CCCCC1): 341 nm
- absorption maximum (in C1COCCO1): 343 nm
- absorption maximum (in CC#N): 341 nm
- absorption maximum (in CC(C)(C)O): 347 nm
- absorption maximum (in CC(C)O): 345 nm
- absorption maximum (in CCCCCC): 340 nm
- absorption maximum (in CCCCO): 346 nm
- absorption maximum (in CCOC(C)=O): 342 nm
- absorption maximum (in CN(C)C=O): 344 nm
- absorption maximum (in CO): 346 nm
- absorption maximum (in ClCCl): 344 nm

SMILES: COCCOCCOCCOc1ccc(/C=C/C2=[N+]3C(=C(c4cc(OC)cc(OC)c4)c4c(C)c(I)c(/C=C/c5ccc(OCCOCCOCCOC)cc5)n4[B-]3(F)F)C(C)=C2I)cc1
- absorption maximum (in C1CCOC1): 664 nm
- absorption maximum (in CS(C)=O): 666 nm
- absorption maximum (in ClCCl): 664 nm

SMILES: CC(C)(C)c1ccc2c(c1)c1cc(C(C)(C)C)ccc1n2-c1ccc(C(=O)c2ccncc2)cc1
- absorption maximum (in C1CCOC1): 367.32 nm
- absorption maximum (in CCCCCC): 372.17 nm
- absorption maximum (in Cc1ccccc1): 373.66 nm
- absorption maximum (in ClCCl): 377.92 nm

SMILES: COc1ccc(-c2cc(-c3ccccc3)c3n2[B-](F)(F)[N+]2=C4C=NC=CN4[B-](F)(F)[N+]2=C3)cc1
- absorption maximum (in ClCCl): 534 nm

SMILES: CCOC(=O)c1ccccc1-c1c2ccc(=[N+](CC)CC)cc-2oc2cc(N(CC)CC)ccc12
- absorption maximum (in CC#N): 555 nm
- absorption maximum (in CCO): 541 nm
- absorption maximum (in CN(C)C=O): 560 nm
- absorption maximum (in O): 552 nm

SMILES: CCCCOC(=O)c1cc(Cl)c2c3c(Cl)cc4c5c(cc(Cl)c(c6c(Oc7ccc(C(=O)OC)cc7)cc(C(=O)OCCCC)c1c26)c53)C(=O)N(c1c(C(C)C)cccc1C(C)C)C4=O
- absorption maximum (in Cc1ccccc1): 507 nm

SMILES: COc1cccc2cc(-c3ccc([N+](=O)[O-])cc3)c(=N)oc12
- absorption maximum (in C1CCOC1): 339 nm
- absorption maximum (in CC#N): 332 nm
- absorption maximum (in CS(C)=O): 335 nm
- absorption maximum (in ClC(Cl)Cl): 332 nm

SMILES: CCCCCCCCn1c(=O)c2cc3cc4cc5c(=O)n(CCCCCCCC)c(=O)c5cc4c(C#Cc4ccc(N(c5ccccc5)c5ccccc5)cc4)c3cc2c1=O
- absorption maximum (in ClC(Cl)Cl): 515 nm

SMILES: C[Si](C)(C)c1ccc2ccc3c([Si](C)(C)C)ccc4ccc1c2c43
- absorption maximum (in CCCCCC): 350 nm
- absorption maximum (in CO): 349 nm
- absorption maximum (in ClCCl): 352 nm

SMILES: COc1cc2cc(C#Cc3ccc(/C=C(\C#N)C(=O)O)cc3)c(=O)oc2cc1OC
- absorption maximum (in CC#N): 398 nm

SMILES: COc1ccc2nc(/N=N/c3ccc(N(C)C)cc3)sc2c1
- absorption maximum (in CC#N): 506 nm
- absorption maximum (in ClCCl): 506 nm

SMILES: CCCCCCCCN1C(=O)c2ccc3c4c(-c5ccc(N(c6ccccc6)c6ccccc6)cc5)cc5c6c(cc(-c7ccc(N(c8ccccc8)c8ccccc8)cc7)c(c7ccc(c2c37)C1=O)c64)C(=O)N(CCCCCCCC)C5=O
- absorption maximum (in ClC(Cl)Cl): 606 nm
